Results taken from US11827543B2, “Method for continuous supply of superoxide-containing peracetate oxidant solution” (Clean Chemistry, Inc., priority 2014, dated 2023).

Assay: Half life and attenuation of oxidant solution in clean water
Type: physicochemical
Method: Measurement of Sodium Peracetate Concentration: Measurement of sodium peracetate concentration is conducted by using a peroxide iodometric titration procedure from HACH. A known, volumetric aliquot of the peracetate-containing solution is diluted with a volume of distilled water where the total volume is convenient for titration between about 5 and 25 mL in a small glass beaker or flask. The diluted peracetate solution is stirred and 1 mL of ammonium molybdate reagent (HACH reagent 1933-32) is added. Sulfuric acid in the reagent converts the peracetate to peracetic acid. The contents of one Sulfite 1 Reagent packet (HACH reagent 2203-99) is added to the prepared solution and stirred for 5 minutes. The purple color that develops is titrated to a colorless endpoint with a standard sodium thiosulfate solution (for example, 0.0250 N sodium thiosulfate solution). The peroxide concentration is calculated based on the volume of the aliquot of peracetate-containing solution, the volume and concentration of sodium thiosulfate solution, two electron equivalents consumed for each molecule of peroxide and the molecular weight of the peroxide being measured.
Example 8: Half Life and Attenuation of Oxidant Solution: The minimum attenuation rate or degradation rate of the sodium peracetate oxidant solution was measured experimentally in clean water conditions. A sodium peracetate oxidant solution containing an initial concentration of 7.5% (wt/vol) sodium peracetate with an initial pH of about 10.1 was prepared by dissolving 0.34 g of sodium hydroxide (98%) in 10.0 mL of 2.85% wt/vol hydrogen peroxide (topical solution) in a 50 mL beaker. Then 1.22 g of triacetin (99%) was combined and the mixture rapidly stirred for 1-2 minutes at room temperature. […]
The sodium peracetate concentration was measured over time using the method described in Example 4. Concentrations were accurate to about ±2.4% of the values measured. The pH was measured using a high sodium electrode (Oakton model 35805-05) with three point calibration and automatic temperature correction.

Q: With `CC(=O)O[O-].[Na+]` [sodium peracetate oxidant, sodium peracetate] as the molecule, how does the half-life (7.5% (wt/vol) solution, 25 °C, clean water, initial pH 10.1) read?
A: 1.33 to 1.42 h

Q: What about the “final pH of solution” value (7.5% solution, 25 °C, at 265 min, initial pH 10.1) of the same molecule?
A: 7.3

Q: What about the concentration of oxidant (within about 6 days' time) of the same molecule?
A: less than 5 mg/L
